Source: patent US20020081686A1 (priority 1999, published 2002)

System: PPK2
Conditions: 1 mM Pi
From the text: PPK2 has been detected in crude cell extracts of K.pneumoniae and E. coli.

## phosphate
  inhibition of PPK2: about 90%
